From patent US10835542B2, “9-aminomethyl minocycline compounds and use thereof in treating community-acquired bacterial pneumonia (CABP)” (Paratek Pharmaceuticals, Inc., priority 2016, dated 2020)

Legend:
[1] = Phase 1 multiple oral dose study: safety and tolerability
Mycoplasma pneumoniae = test: Clinical success at PTE by baseline pathogen, microITT; format: in vivo, human; settings: N1 = 70 (Compound 1), 57 (Moxifloxacin)
Streptococcus pneumoniae = test: Mouse model of lower respiratory tract infection; format: in vivo; settings: infection caused by Streptococcus pneumoniae
Chlamydophila pneumoniae = test: Clinical success at PTE by baseline pathogen, microITT; format: in vivo, human; settings: N1 = 28 (Compound 1), 28 (Moxifloxacin)
[2] = 600 mg (n = 24), Safety Population
[3] = Omadacycline Overall (n = 26), Safety Population
[4] = subject who received 450 mg in Period 1 then 300 mg in Period 2

## CN(C)c1cc(CNCC(C)(C)C)c(O)c2c1C[C@H]1C[C@H]3[C@H](N(C)C)C(O)=C(C(N)=O)C(=O)[C@@]3(O)C(O)=C1C2=O [Compound 1, 9-[(2,2-dimethyl-propylamino)-methyl]-minocycline]
[1]; [2]
  TEAEs leading to early discontinuation of study drug: Lipase increased, n (%): 1 (4.2) n (%)
  TEAEs leading to early discontinuation of study drug: Nausea, n (%): 0 n (%)
  TEAEs leading to early discontinuation of study drug: Syncope, n (%): 0 n (%)
  TEAEs leading to early discontinuation of study drug: Vomiting, n (%): 0 n (%)
  n (%) of subjects with Any TEAE: 6 (25.0) n (%)
  n (%) of subjects with Treatment-related TEAE: 6 (25.0) n (%)
[1]; 600 mg group
  TEAE nausea: 16.7%
[1]; 300, 450 and 600 mg once daily for 5 days
  tolerability of multiple doses: generally well-tolerated
[1]; 300 and 450 mg dose groups
  TEAE nausea: ≤ 7.7%
[1]; [3]
  Most frequent TEAEs: ALT increased, n (%): 2 (7.7) n (%)
  Most frequent TEAEs: Diarrhea, n (%): 2 (7.7) n (%)
  Most frequent TEAEs: Dizziness, n (%): 3 (11.5) n (%)
  Most frequent TEAEs: Nausea, n (%): 6 (23.1) n (%)
  Most frequent TEAEs: Vomiting, n (%): 3 (11.5) n (%)
  TEAEs leading to early discontinuation of study drug: ALT increased, n (%): 1 (3.8) n (%)
  TEAEs leading to early discontinuation of study drug: All, n (%): 3 (11.5) n (%)
  TEAEs leading to early discontinuation of study drug: Lipase increased, n (%): 1 (3.8) n (%)
  TEAEs leading to early discontinuation of study drug: Nausea, n (%): 1 (3.8) n (%)
  TEAEs leading to early discontinuation of study drug: Syncope, n (%): 0 n (%)
  TEAEs leading to early discontinuation of study drug: Vomiting, n (%): 1 (3.8) n (%)
  n (%) of subjects with Any TEAE: 10 (38.5) n (%)
  n (%) of subjects with Treatment-related TEAE: 9 (34.6) n (%)
[1]; multiple oral doses 300-600 mg
  serious TEAEs (SAEs): no serious TEAEs
  severity of TEAEs: either mild or moderate
[1]; [4]
  highest individual ALT value: 150 IU/L
  highest individual ALT value above the upper limit of normal: 2.7 fold
[1]; subjects that received omadacycline (300, 450, 600 mg)
  subjects reporting TEAEs: 38.5%
Mycoplasma pneumoniae
  Clinical Success n (%): 66 (94.3) n (%)
Streptococcus pneumoniae
  efficacy in mouse model of lower respiratory tract infection: effective
ITT population
  Total number of deaths: 8
Phase 3 CABP
  severity of gastrointestinal (GI) adverse events (vomiting, nausea, diarrhea, dyspepsia): mild
Safety population
  Subjects who died: 8 (2.1) n (%)
  Subjects with at least one Adverse Event (AE): 170 (44.5) n (%)
  Subjects with at least one Drug-Related Serious TEAE: 2 (0.5) n (%)
  Subjects with at least one Drug-Related TEAE: 39 (10.2) n (%)
  Subjects with at least one Serious TEAE: 23 (6.0) n (%)
  Subjects with at least one Serious TEAE Leading to Death: 8 (2.1) n (%)
  Subjects with at least one Serious TEAE Leading to Premature Discontinuation of Test Article: 10 (2.6) n (%)
  Subjects with at least one Severe TEAE: 25 (6.5) n (%)
  Subjects with at least one TEAE: 157 (41.1) n (%)
  Subjects with at least one TEAE Leading to Dose Interruption: 0 n (%)
  Subjects with at least one TEAE Leading to Premature Discontinuation of Study: 7 (1.8) n (%)
  Subjects with at least one TEAE Leading to Premature Discontinuation of Test Article: 21 (5.5) n (%)
  TEAE leading to study drug discontinuation: Diarrhoea: 0 n (%)
  TEAE leading to study drug discontinuation: Dyspepsia: 0 n (%)
  TEAE leading to study drug discontinuation: Gastrointestinal Disorders: 2 (0.5) n (%)
  TEAE leading to study drug discontinuation: Nausea: 1 (0.3) n (%)
  TEAE leading to study drug discontinuation: Vomiting: 2 (0.5) n (%)
  TEAE: Alanine Aminotransferase Increased: 14 (3.7) n (%)
  TEAE: Aspartate Aminotransferase Increased: 8 (2.1) n (%)
  TEAE: Clostridium Difficile Colitis: 0 n (%)
  TEAE: Clostridium Difficile Infection: 0 n (%)
  TEAE: Constipation: 9 (2.4) n (%)
  TEAE: Diarrhoea: 4 (1.0) n (%)
  TEAE: Dyspepsia: 4 (1.0) n (%)
  TEAE: Gamma-Glutamyltransferase Increased: 10 (2.6) n (%)
  TEAE: Headache: 8 (2.1) n (%)
  TEAE: Hypertension: 13 (3.4) n (%)
  TEAE: Insomnia: 10 (2.6) n (%)
  TEAE: Nausea: 9 (2.4) n (%)
  TEAE: Pseudomembranous Colitis: 0 n (%)
  TEAE: Vomiting: 10 (2.6) n (%)
  Total Number of AEs: 434
  Total Number of TEAEs: 376
Chlamydophila pneumoniae
  Clinical Success n (%): 25 (89.3) n (%)
